Columns and labels:
[1] = target: streptavidin-Alexa Fluor 633 conjugate (Streptomyces avidinii, UniProt P22629); experiment: Detection of low molecule-protein bonding on low molecule-fixed slide (fluorescent slide scanner, 635 nm); type: binding; conditions: light of 635 nm; 3.7 μg/mL streptavidin-Alexa Fluor 633 conjugate; room temperature 1 hour; compound fixed on photophilic atomic group-introduced slide
Protocol: (§1) On the photophilic atomic group-introduced slide, 0.2 μL of each of solutions of low-molecular compounds (biotin, rhodamine B, digoxin) in DMSO, which had been prepared in concentrations of 100, 10, 1, 0.1 and 0.01 mM, was spotted. The slide was dried in an incubator at 35° C. for 3 hours and further dried with a vacuum pump for 20 hours. […] The slide was then washed while shaking by immersing in ethanol, DMF, THF, ethanol and deionized water in this order (for 1 hour each). Thus, a slide on which low molecules were fixed was produced.
(§2) Onto the low molecule-fixed slide, a protein solution (162 μg/mL anti-digoxin monoclonal antibody clone DI-22-FITC conjugate, 3.7 μg/mL streptavidin-Alexa Fluor 633 conjugate, 1% (w/v) skimmed milk, 77 mM NaCl, 0.05% (w/v) TWEEN™ 20 (polysorbate 20), 50 mM Tris-HCl, pH 7.5) was added at a rate of […], and then treated at room temperature for 1 hour. The slide was washed while shaking three times with a wash buffer (77 mM NaCl, 0.05% (w/v) TWEEN™ 20 (polysorbate 20), 50 mM Tris-HCl, pH 7.5), rinsed with deionized water, and dehydrated in a dehydration centrifuge (400×g) for 1 minute, The slide was exited with light of 488, 532 and 635 nm, respectively, and the emitted fluorescent light was observed on a fluorescent slide scanner. […]

[2] = tested on: anti-digoxin monoclonal antibody clone DI-22-FITC conjugate; experiment: Detection of low molecule-protein bonding on low molecule-fixed slide (fluorescent slide scanner, 488 nm); type: binding; conditions: light of 488 nm; 162 μg/mL anti-digoxin monoclonal antibody clone DI-22-FITC conjugate; room temperature 1 hour; compound fixed on photophilic atomic group-introduced slide
Protocol: as §1, §2

Chain of streptavidin-Alexa Fluor 633 conjugate (P22629 25-183): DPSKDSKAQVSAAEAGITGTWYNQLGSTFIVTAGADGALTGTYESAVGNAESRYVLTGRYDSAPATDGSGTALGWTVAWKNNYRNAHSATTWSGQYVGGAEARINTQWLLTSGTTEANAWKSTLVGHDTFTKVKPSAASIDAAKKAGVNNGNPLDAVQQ

For `O=C(O)CCCC[C@@H]1SC[C@@H]2NC(=O)N[C@@H]21` [biotin], the “binding of fixed low-molecular compound to protein (fluorescence detected at spotted areas)” value [1] was “bound to the protein”.

In the case of `C[C@H]1O[C@@H](O[C@H]2C(O)C[C@H](OC3CC[C@@]4(C)[C@H](CC[C@@H]5[C@@H]4C[C@@H](O)[C@]4(C)[C@@H](C6=CC(=O)OC6)CC[C@]54O)C3)O[C@@H]2C)C[C@H](O)C1O[C@H]1C[C@H](O)[C@H](O)[C@@H](C)O1` (some centres unmarked) [digoxin], the “binding of fixed low-molecular compound to protein (fluorescence detected at spotted areas)” value [2] is reported as “bound to the protein”.

Source: patent publication US7713706B2, “Method of fixing low-molecular compound to solid-phase support” (RIKEN, priority 2003, dated 2010)
